According to US6379900B1, “Compositions and methods of use of 8-nitroguanine” (Conceptual Mindworks, Inc., priority 2000, dated 2002):

Key:
[1] = system: supercoiled pUC19 plasmid DNA; test: Conversion of supercoiled plasmid DNA to open circles (single-stranded DNA breaks) by peroxynitrite; type: biochemical, E coli
Experimental: E coli strain JM109 containing plasmid DNA (pUC19) was grown in 2 ml of M9 media to which 24 μl of 2.5 mg/ml ampicillin was added. Following incubation for approximately 8 hours, the culture was transferred to 50 ml of M9 media containing ampicillin. The following day, 25 ml of the overnight culture was used to inoculate 500 ml of M9 media containing ampicillin. When the optical density at 600 nm of the bacterial culture reached between 0.6 and 0.8 O.D., 50 mg of chloramphenicol, dissolved in 1 ml of absolute ethanol, was added to the culture and the culture was incubated overnight. The next morning, cells were harvested by centrifugation. Plasmid DNA was isolated using a Promega Wizard MaxiPrep Kit. Cells were resuspended in resuspension solution, and lysis buffer was added. The buffer was neutralized after 20 min, the solution was centrifuged and the supernatant collected. To the supernatant was added 0.5 volumes of isopropanol, which caused the DNA to precipitate. […] After removing the fine particles the DNA was ready for use. Its concentration was measured by absorbance at 260 nm (0.2 OD units=10 μg/ml). Plasmid DNA was analyzed by electrophoresis in TAE buffer using a 1% agarose gel. […] DNA was analyzed as described above. The effect of peroxynitrite concentration on the conversion of supercoils to open circles was determined at pH 5, 6, 7, 8, and 9. […] DNA was analyzed as described above. […]

[2] = system: Calf Thymus DNA; test: Viscosity studies of DNA exposed to peroxynitrite (depurination and strand breakage); type: biochemical
Source text: As the degree of DNA damage increases, the likelihood of two single stranded breaks occurring within a few bases on the opposite strands of double-stranded DNA also increases. Double-stranded DNA breaks result in a decrease in the length of the DNA molecule, detectable as a decreased viscosity of linear double-stranded DNA. This method was also used to assay for depurination and DNA strand breakage. Stock solutions of Sigma Calf Thymus DNA were made by dissolving DNA in 0.1 M Na2HPO4, pH 8, 0.1 M sodium cacodylate, pH 5, 0.1 M Tris, pH 8, and 0.1 M borate, pH 8. The final volume for all viscosity experiments was 40 ml and the DNA concentration was 420 μg/ml. […] The data was recorded as the relative viscosity and specific viscosity of the solution.

[3] = cited from earlier work

O=NOO [peroxynitrite]
reduction in DNA supercoiling ([1]; minimum observed under the conditions of the study, constant peroxynitrite concentration): ≥ 45%
conversion of supercoiled plasmid DNA to open circles ([1]; pH 4 to 10, 30 minutes at room temperature): effective at converting supercoiled plasmid DNA to open circles at all pHs
activation energy of the depurination reaction (formation of single-stranded DNA nicks) ([2]; Arrhenius analysis): 917 Joules/mole
viscosity of DNA solution with time of exposure ([2]; all pH values, 37° C., within the first two hours of exposure): Viscosity decreased

O=NOO [peroxynitrous acid]
pKa ([3]; acid form of peroxynitrite): 6.8
half life ([3]; pH 7.4): 1.9 s
